{
  "source": "patent EP0258175A2",
  "about": "“5-hetero- or aryl-substituted-imidazo[2,1-a]isoquinolines” (SANDOZ AG, priority 1986, dated 1988)",
  "key": {"Abelson 8.1 tumor cells [1]": {"system": "Abelson 8.1 tumor cells", "experiment": "Tumor cell cytotoxicity Test (TCCT) (Test D), alkaline phosphatase readout", "type": "cell-based", "details": "at 5µg", "protocol": "Test D) Tumor cell cytotoxicity Test (TCCT).\nIn flat bottom microtiter plates (Nunc Roskieide, Denmark) were placed Abelson 8.1 tumor cells in DMEM + 10% fetal calf serum and the tumor cell-containing plates were incubated with 1,3, and 5µg of the test compound for a period of 6 to 72 hours. The number of viable tumor cells present was determined by measuring the alkaline phosphatase in the following manner. The tumor cell plates were centrifuged (500 x g.) for ten minutes and the supernatant flicked off. Without further washing, 100 ul of buffer containing 20 ul of diethanolamine, 2uM of MgCl₂ · 6H₂O, 2.5 uM of p-nitrophenylphosphate and 10 mg Triton X-100 were added. The samples were incubated for 60 minutes at room temperature and the enzymatic reaction was terminated by the addition of 100 ul of 0.5N NaOH. The absorbance was then measured at […] using a Titertek Multiskan apparatus."}, "Abelson 8.1 tumor cells [2]": {"system": "Abelson 8.1 tumor cells", "experiment": "Influence on Cytotoxicity of ET-18-OCH₃ test (IC-ET test) (Test E)", "type": "cell-based, mice", "details": "at 5 µg, macrophages pre-incubated with 10µg ET-18-OCH₃, values recorded after 72 hours, ET-18-OCH₃ alone set at 100%", "protocol": "Test E) Influence on Cytotoxicity of ET-18-OCH₃ test (IC-ET test).\nBone marrow cell macrophages (10⁵/well)obtained from [BALB/CX57/BL₆]Fl mice were incubated with 10µg of 1-octadecyl-2-methoxy-3-phosphoryl choline (ET-18-OCH₃) for 24 hours in flat bottom microtiter plates (Nunc Roskieide,Denmark), after which time they are centrifuged and washed once. Abelson 8.1 tumor cells in DMEM + 10% fetal calf serum and 1,3 and 5ug of the test compound were then added to the plates. With the cytotoxicity of ET-18-OCH₃ (10ug) alone set at 100%, the inhibition or enhancement of the cytotoxic effect, as measured by an alkaline phosphatase assay, was determined and values recorded after 72 hours for 1,3 and 5ug of the test substance."}, "Meth A sarcoma cells": {"system": "Meth A sarcoma cells", "experiment": "Meth A fibrosarcoma implant in mice (Test F): tumor growth and survivors", "type": "in vivo", "details": "50µg per day p.o. for 28 days, ten CBF₁ mice implanted with 7.3 x 10⁶ Meth A sarcoma cells", "from_the_text": "Test F) Meth A fibrosarcoma cells were induced in BALB/C mice by administering methylcholanthrene according to the procedure of Old, et al. (L.J. Old, E.A. Boyse, D.A. Clarke, and E. Carswell, Ann. N.Y. Acad. Sci., 101, 80 (1962). These tumor cells were harvested from the peritoneal cavity 10 to 12 days after administration of methylcholanthrene. Ten CBF₁ mice of 10-12 week age were each implanted with 7.3 x 10⁶ Meth A sarcoma cells to serve as control. A second group of ten CBF₁ mice were each implanted with 7.3 x 10⁶ Meth A sarcoma cells and on day one after implant each mouse was treated p.o. with 5-50µg of the test compound per day for a total of twenty or twenty-seven days. Tumor growth and survivors were assayed on days 7, 14, 21 and 28 after tumor implantation."}, "[3]": {"molecular_target": "T1, Human Platelet PAF Receptor (Homo sapiens, UniProt P25105)", "T1 construct": "from tissue; host or cells: washed human platelets from donor blood", "T1 sequence (P25105 whole entry)": "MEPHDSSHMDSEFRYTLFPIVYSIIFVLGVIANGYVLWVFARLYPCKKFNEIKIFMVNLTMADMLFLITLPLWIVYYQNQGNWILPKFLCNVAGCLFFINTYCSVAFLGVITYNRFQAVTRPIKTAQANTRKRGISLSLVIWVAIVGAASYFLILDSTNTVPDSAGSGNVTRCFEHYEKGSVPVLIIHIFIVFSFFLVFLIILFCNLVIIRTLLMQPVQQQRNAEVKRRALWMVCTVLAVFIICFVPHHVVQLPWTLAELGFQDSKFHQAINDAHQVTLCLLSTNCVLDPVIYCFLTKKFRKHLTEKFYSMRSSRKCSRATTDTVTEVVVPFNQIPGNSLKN", "experiment": "Human Platelet PAF Receptor Assay test (Test A): inhibition of specific binding of [³H]-PAF to platelets", "details": "inhibition of specific binding of [³H]-PAF to human platelets, read-out: IC₅₀", "protocol": "The compounds of formula I are indicated for use as platelet activating factor receptor antagonists as indicated by their ability to inhibit specific binding of [³H]-PAF to platelets according to the Human Platelet PAF Receptor Assay test (Test A) as follows: Human blood is obtained by venipuncture of healthy, human donors into an anti-coagulant mixture containing 3.15% of trisodium citrate and 20 µg/ml of Prostaglandin I₂ (PGI₂) in a ratio of blood to anti-coagulant of 9:1. Platelet rich plasma (PRP) is prepared by centrifugation (250 x g) of the blood for 20 minutes at room temperature. […] All of the tests are conducted in duplicate and each of the test compounds is evaluated at concentrations of 100, 50, 1 and 0.1 µM. […] An additional 2 ml of Scintiverse II is then added to the vials and, after mixing, the vials are counted for 1 minute in a liquid scintillation spectrometer. The amount of specific binding is calculated as the difference in cpm between the total bound [³H]-PAF and non-specifically bound [³H]-PAF. The percent inhibition of specific binding is determined by dividing the cpm specifically bound in the presence of the test compound by the cpm specifically bound in total, multiplying by 100 and then subtracting from 100. […]"}, "[4]": {"system": "PAF-mediated bronchoconstriction", "experiment": "PAF-induced Pulmonary Inflation Pressure (PIP) Increase test (Test B)", "type": "in vivo", "details": "Cavia porcellus, po, guinea pigs, PAF 100 ng/kg i.v., maximal PIP increase, read-out: ED₅₀", "protocol": "Furthermore, in view of their potential as PAF receptor antagonists, the compounds of formula I are indicated for use as inhibitors of PAF-mediated bronch oconstriction, which property was evaluated by the PAF-induced Pulmonary Inflation Pressure (PIP) Increase test (Test B) as follows:\nMale guinea pigs, weighing between 300 and 400 g, are anesthetized, after which time trachea tube, carotid and jugular cathers are inserted. The test animal is then force ventilated employing a small animal Harvard respirator and the resistance to lung inflation (PIP) is measured utilizing a pressure transducer and recorder. The test compound is administered either orally at 30 minutes up to 4 hours prior to or parenterally e.g. intravenously (jugular) etc. at 5 minutes up to 4 hours prior to the introduction of PAF. […] Any blood pressure measurements taken are recorded from a transducer attached to the carotid catheter. […] A reading at 15 minutes after the administration of PAF is termed the endpoint PIP. The effect of the test compound on the PIP response is determined by the difference between the percent increase in maximal PIP over baseline for the test animal to which has been administered PAF and the test compound compared to the test animal to which only PAF has been administered."}, "[5]": {"system": "PAF-mediated extravasation", "experiment": "PAF-induced Extravasation test (Test C), hemoconcentration (hematocrit)", "type": "in vivo", "details": "Cavia porcellus, po, guinea pigs, PAF 100 ng/kg i.v., inhibition of increase in hematocrit, read-out: ED₅₀", "protocol": "Still further, the compounds of formula I are indicated for use as inhibitors of PAF-mediated extravasation (the extrusion of plasma from the lumen of the blood vessels into the vessel wall and surrounding tissues) measured as a function of hemoconcentration according to the PAF-induced Extravasation test(Test C) as follows: Male guinea pigs, weighing between 300 and 400 g, are anesthetized, after which time a femoral catheter is inserted. The test compound is administered either orally or parenterally one hour up to 4 hours prior to the introduction of PAF. The PAF (C₁₈-Sandoz, Hanover) is dissolved in Tris-Tyrode's bovine serum albumin buffer and administered intravenously (jugular) at 100 ng/kg. […] The tubes are then centrifuged and the percent of packed red blood cells (hematocrit) is measured (PAF induces a maximal increase in hematocrit at 5 to 7 minutes subsequent to the injection of PAF). The percent increase in hematocrit over the value prior to the injection of PAF is calculated. The hemacrotit values obtained with the test compound are compared to the hemoconcentration values obtained with PAF alone and are expressed as percent inhibition of percent increase in hematocrit."}},
  "note": "Where a name gives a salt, the structure may show the parent alone.",
  "data": [
    {"smiles": "C=CCN(CC=C)Cc1ccc(C2=Cc3ccccc3C3=NCCN23)cc1", "note": "[Example 3BB, 5-(4ʹ-diallylaminomethylphena]isoquinoline dihydrochloride]", "values": [
      {"measurement": "inh.", "setting": "Abelson 8.1 tumor cells [1]", "value": 99, "unit": "%"},
      {"measurement": "inh.", "setting": "Abelson 8.1 tumor cells [2]", "value": 97, "unit": "%"}
    ]},
    {"smiles": "C1=C(c2ccc(CN3CCCCC3)cc2)N2CCN=C2c2ccccc21.Cl.Cl", "note": "[Example 3N, 5-(4ʹ-piperidinomethylphenyl)-2,3-dihydroimidazo[2,1-a]isoquinoline dihydrochloride]", "values": [
      {"measurement": "Tumor growth", "setting": "Meth A sarcoma cells", "value": "no evidence of the presence of any tumors"},
      {"measurement": "survivors", "setting": "Meth A sarcoma cells; none of the control group survived", "value": "all of the animals"}
    ]},
    {"smiles": "COc1cc(CCc2ccc(C3=Cc4ccccc4C4=NCCN34)cc2)cc(OC)c1OC.Cl", "note": "[Example 7E, 5-[4ʹ-(3,4,5-trimethoxyphenylethyl)phenyl]-2,3-dihydroimidazo [2,1-a]isoquinoline hydrochloride]", "values": [
      {"measurement": "IC50", "setting": "[3]", "value": 60, "unit": "nM"},
      {"measurement": "ED50", "setting": "[4]", "value": 5, "unit": "mg/kg"},
      {"measurement": "ED50", "setting": "[5]", "value": 4.2, "unit": "mg/kg"}
    ]}
  ]
}
